From publication PMC10650955, “α-Aminophosphonate inhibitors of metallo-β-lactamases NDM-1 and VIM-2” (RSC Medicinal Chemistry, 2023)
Where a name gives a salt, the structure may show the parent alone.

Experiments:
VIM-2 = biological target: T1, VIM-2 (Escherichia coli, UniProt Q5U7L7); test: Dose rate inhibition studies for IC50 determination, VIM-2 enzymatic assay; assay type: biochemical; details: inhibitor 0-800 μM, 3 parallel measurements, N.I. = no enzyme inhibitory activity observed; for IC50: Enzyme IC50 VIM-2, 0.1 nM VIM-2, 100 μM ZnCl2, nitrocefin substrate; for Enzyme IC50 VIM-2: 0.1 nM VIM-2, 100 μM ZnCl2, nitrocefin substrate
T1 construct: made in house
Procedure: (§1) The […] synthesized compounds 5a–l were tested for their inhibitory activities against NDM-1, VIM-2 (Table 1), and GIM-1 in an in vitro enzymatic assay (ESI ^†).[41] The inhibitory activity was measured using enzyme concentrations of 0.1 nM VIM-2, 10 nM NDM-1 or 1 nM GIM-1, with an excess Zn(II) (100 μM, see Experimental methods), with inhibitor compounds with concentrations from 0 to 800 μM. Each data point was measured in triplicates. […] This is in line with previous reports.[42,43]
(§2) A 100 μl solution with buffer (50 mM HEPES (pH 7.2), 100 μM ZnCl2, 2.5% DMSO), purified enzyme (0.1 nM VIM-2, 10 nM NDM-1 or 1 nM GIM-1) and 800–0 μM inhibitor was incubated in a 96 well plate at 25 °C for 5 min. In addition, the enzyme buffer contained 400 μg ml^−1 bovine serum albumin (BSA) to prevent protein unfolding and loss of activity due to low concentrations.[67,68] 100 μM of the reporter substrate nitrocefin (VIM-2, GIM-1) or imipenem (NDM-1) was added to the enzyme–inhibitor solution and the increase in absorbance at 482 nm (nitrocefin) or 300 nm (imipenem) was recorded on a Spectramax M4 spectrophotometer (Molecular Devices). Each data point was performed in triplicates and the initial velocity for each inhibitor concentration was analyzed by a log [inhibitor] vs. response curve fitting to calculate IC50 in GraphPad Prism 9.2 software.

NDM-1 = biological target: T2, NDM-1 (Klebsiella pneumoniae, UniProt C7C422); test: Dose rate inhibition studies for IC50 determination, NDM-1 enzymatic assay; assay type: biochemical; details: inhibitor 0-800 μM, 3 parallel measurements, N.I. = no enzyme inhibitory activity observed; for Enzyme IC50 NDM-1: 10 nM NDM-1, 100 μM ZnCl2, imipenem substrate; for IC50: Enzyme IC50 NDM-1, 10 nM NDM-1, 100 μM ZnCl2, imipenem substrate
T2 construct: made in house
Procedure: as §1, §2

15N-labelled VIM-2 = biological target: T3, 15N-labelled VIM-2 (Escherichia coli, UniProt Q5U7L7); test: 1H,15N HSQC NMR chemical shift perturbation titration, VIM-2; assay type: binding; details: VIM-2 Kd, 0-16 equiv. ligand, pH 7.0, 310 K
T3 construct: made in house
Procedure: Solution NMR spectroscopy is a powerful tool to assess protein–ligand interactions under close to physiological conditions.[47] We, therefore, performed NMR chemical shift perturbation (CSP, for details, see section S8, ESI ^†) experiments to identify the amino acid residues of NDM-1 and VIM-2 that are involved in inhibitor binding, making use of the previously published protein assignments.[48,49] Titrations were conducted using ^15N-labelled proteins with 0, 0.5, 1, 2, 4, 8, and 16 equiv. of 5 inhibitors for NDM-1 and of 7 inhibitors for VIM-2.
For the titrations, ^15N-labelled NDM-1 and ^15N-labelled VIM-2 (250 μM), and titrated ligands (0.5 equiv. in 1 μL) were prepared in the same buffer as the protein (20 mM KPO4, 0.1 mM ZnCl2, pH 7.0 with 10% D2O and 2.5% DMSO-d6). ^1H,^15N HSQC spectra were acquired with 128 × 1024 complex points (F1 × F2) and spectral width of 9090 × 2740 Hz on ^15N-labeled NDM-1/VIM-2 and with every titration step up to 1 : 16 ratio between protein : ligand (0, 0.5, 1, 2, 4, 8, and 16 equiv. of ligand). All experiments were recorded on a Bruker 600 MHz spectrometer at 310 K equipped with a 5 mm TCI cryogenic probe. The NMR data were processed on the MestReNova software with the Mnova Binding plugin. The weighted average chemical shift perturbations (CSP) for the backbone amides were calculated from the observed chemical shift differences in the proton and nitrogen dimensions using the equation (chemical shift scaling factors: FH = 1, FN = 0.156) CSP = Δδ1H,15N = [drawing 13] .
7. Chemical shift perturbation histograms
Chemical shift perturbation was calculated according equation (1) 2
CSP = Δδ(1H,15N) = √(Δδ1H2 + (1⁄R × Δδ15N2) Rscale = 6.5 (1)
Where Δδ1H is the chemical shift change for proton dimension, Δδ15N is the chemical shift change for nitrogen dimension, Rscale is a
The chemical shift perturbations (CSP) were classified as significant (SSP) when the observed Δδ(1H,15N) was greater than the population
mean plus the standard deviation (µ+1σ) – solid line; (µ+2σ) – dashed line, and (µ+3σ) – dashed line.
Further on, Kd was calculated according: 3
([P]+[L]+Kd)− √([P]+[L]+Kd)2−4[P][L]
ΔδmaxΔδobs = Δδmax 2[P] (2)
Where Kd is the dissociation constant, [P] and [L] are protein and ligand concentrations, respectively. Δδmax were estimated in
MestReNova by extrapolation of the obser ved chemical shift differences Δδobs.

T2 sequence (C7C422 29-270 limits assumed): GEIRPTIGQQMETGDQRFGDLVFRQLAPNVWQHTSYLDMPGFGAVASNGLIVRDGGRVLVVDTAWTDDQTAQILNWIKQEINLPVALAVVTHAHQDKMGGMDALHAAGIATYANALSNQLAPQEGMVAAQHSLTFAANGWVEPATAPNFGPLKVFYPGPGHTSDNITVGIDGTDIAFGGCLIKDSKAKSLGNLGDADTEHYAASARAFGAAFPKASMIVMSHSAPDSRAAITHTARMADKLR

| SMILES | IC50 (VIM-2) [µM] | Enzyme IC50 NDM-1 (NDM-1) | Enzyme IC50 VIM-2 (VIM-2) | Kd (15N-labelled VIM-2) [µM] | IC50 (NDM-1) [µM] |
| --- | --- | --- | --- | --- | --- |
| O=C(Cc1cc2ccccc2s1)NC(C1CCCCN1)P(=O)(O)O (single isomer, unassigned) [Compound 5k-2, ((2-(Benzo[b]thiophen-2-yl)acetamido)(piperidin-2-yl)methyl)phosphonic acid hydrochloride] | 28.7 ± 10.1 |  |  |  |  |
| O=C(NC(C1CCCCN1)P(=O)(O)O)c1ccsc1 (centres unmarked) [Compound 5c-2, (Piperidin-2-yl(thiophene-3-carboxamido)methyl)phos-phonic acid hydrochloride] | 14.6 ± 2.3 | N.I. |  |  |  |
| Cl.O=C(NC(C1CCCCN1)P(=O)(O)O)c1cc2c(s1)CCCC2 (centres unmarked) [Compound 5d-2, (Piperidin-2-yl(4,5,6,7-tetrahydrobenzo[b]thiophene-2-carboxamido)methyl)phosphonic acid hydrochloride] | 4.5 ± 0.8 | N.I. |  |  |  |
| O=C(Cc1ccsc1)NC(C1CCCCN1)P(=O)(O)O (centres unmarked) [Compound 5j-2, (Piperidin-2-yl(2-(thiophen-3-yl)acetamido)methyl)phos-phonic acid hydrochloride] |  | N.I. | N.I. |  |  |
| Cl.O=C(NC(C1CCCCN1)P(=O)(O)O)c1scc2c1CCCC2 (single isomer, unassigned) [Compound 5f-1, (Piperidin-2-yl(4,5,6,7-tetrahydrobenzo[c]thiophene-1-carboxamido)methyl)phosphonic acid hydrochloride] | 37 ± 3 | N.I. |  |  |  |
| Cc1[nH]c(=S)sc1CC(=O)NC(C1CCCCN1)P(=O)(O)O (centres unmarked) [Compound 5a-1, ((2-(4-Methyl-2-thioxo-2,3-dihydrothiazol-5-yl)acet-amido)(piperidin-2-yl)methyl)phosphonic acid hydro-chloride] | 353 ± 62 | N.I. ^b |  | 900 ± 100 |  |
| Cl.O=C(Cc1csc2ccccc12)NC(C1CCCCN1)P(=O)(O)O (centres unmarked) [Compound 5l-1, ((2-(Benzo[b]thiophen-3-yl)acetamido)(piperidin-2-yl)methyl)phosphonic acid hydrochloride] |  |  | N.I. |  | 7.9 ± 1.6 |
| O=C(NC(C1CCCCN1)P(=O)(O)O)c1cc2ccccc2s1 (centres unmarked) [Compound 5g-1, ((Benzo[b]thiophene-2-carboxamido)(piperidin-2-yl)methyl)phosphonic acid hydrochloride] | 45 ± 5 |  |  |  | 46.7 ± 9.7 |
| Cl.O=C(NC(C1CCCCN1)P(=O)(O)O)c1csc2c1CCCC2 (single isomer, unassigned) [Compound 5e-2, (Piperidin-2-yl(4,5,6,7-tetrahydrobenzo[b]thiophene-3-carboxamido)methyl)phosphonic acid hydrochloride] | 46.1 ± 15.6 | N.I. |  |  |  |
| Cl.O=C(Cc1cc2ccccc2s1)NC(C1CCCCN1)P(=O)(O)O (single isomer, unassigned) [Compound 5k-1, ((2-(Benzo[b]thiophen-2-yl)acetamido)(piperidin-2-yl)methyl)phosphonic acid hydrochloride] | 56.6 ± 1 | N.I. |  |  |  |
| Cc1[nH]c(=S)sc1CC(=O)NC(C1CCCCN1)P(=O)(O)O (centres unmarked) [Compound 5a-2, ((2-(4-Methyl-2-thioxo-2,3-dihydrothiazol-5-yl)acet-amido)(piperidin-2-yl)methyl)phosphonic acid hydro-chloride] |  | N.I. | N.I. |  |  |
| Cl.O=C(NC(C1CCCCN1)P(=O)(O)O)c1cc2c(s1)CCCC2 (centres unmarked) [Compound 5d-1, (Piperidin-2-yl(4,5,6,7-tetrahydrobenzo[b]thiophene-2-carboxamido)methyl)phosphonic acid hydrochloride] | 244 ± 35 | N.I. |  |  |  |
| O=C(NC(C1CCCCN1)P(=O)(O)O)c1csc2ccccc12 (centres unmarked) [Compound 5h-2, ((Benzo[b]thiophene-3-carboxamido)(piperidin-2-yl)met-hyl)phosphonic acid hydrochloride] | 11.6 ± 4.7 | N.I. |  |  |  |
| O=C(NC(C1CCCCN1)P(=O)(O)O)c1csc2ccccc12 (centres unmarked) [Compound 5h-1, ((Benzo[b]thiophene-3-carboxamido)(piperidin-2-yl)met-hyl)phosphonic acid hydrochloride] | 40.6 ± 3.9 | N.I. |  |  |  |
| O=C(NC(C1CCCCN1)P(=O)(O)O)c1csc2c1CCCC2 (single isomer, unassigned) [Compound 5e-1, (Piperidin-2-yl(4,5,6,7-tetrahydrobenzo[b]thiophene-3-carboxamido)methyl)phosphonic acid hydrochloride] | 69.7 ± 26.2 |  |  |  |  |
| Cl.O=C(NC(C1CCCCN1)P(=O)(O)O)c1scc2c1CCCC2 (single isomer, unassigned) [Compound 5f-2, (Piperidin-2-yl(4,5,6,7-tetrahydrobenzo[c]thiophene-1-carboxamido)methyl)phosphonic acid hydrochloride] | 18.8 ± 0.5 | N.I. |  |  |  |
| O=C(NC(C1CCCCN1)P(=O)(O)O)c1cccs1 (centres unmarked) [Compound 5b-2, (Piperidin-2-yl(thiophene-2-carboxamido)methyl)phos-phonic acid hydrochloride] | 7.2 ± 0.4 | N.I. |  | 1400 ± 100 |  |
| O=C(NC(C1CCCCN1)P(=O)(O)O)c1cc2ccccc2s1 (centres unmarked) [Compound 5g-2, ((Benzo[b]thiophene-2-carboxamido)(piperidin-2-yl)methyl)phosphonic acid hydrochloride] | 4.1 ± 2.1 |  |  |  | 46.8 ± 5.5 |
| O=C(Cc1csc2ccccc12)NC(C1CCCCN1)P(=O)(O)O (centres unmarked) [Compound 5l-2, ((2-(Benzo[b]thiophen-3-yl)acetamido)(piperidin-2-yl)methyl)phosphonic acid hydrochloride] | 94.4 ± 5.8 |  |  |  | 27.8 ± 21 |
